Assays:
[1] = biological target: T1, indoleamine 2,3-dioxygenases 2 (IDO2) (Homo sapiens, UniProt Q6ZQW0); test: Universal IDO1/IDO2/TDO Inhibitor Screening Assay Kit, IDO2; type: biochemical; settings: read-out: Inhibition (%) IDO2
T1 construct: purchased BPS Bioscience, Inc. (San Diego, CA, USA)
T1 sequence (Q6ZQW0 1-407): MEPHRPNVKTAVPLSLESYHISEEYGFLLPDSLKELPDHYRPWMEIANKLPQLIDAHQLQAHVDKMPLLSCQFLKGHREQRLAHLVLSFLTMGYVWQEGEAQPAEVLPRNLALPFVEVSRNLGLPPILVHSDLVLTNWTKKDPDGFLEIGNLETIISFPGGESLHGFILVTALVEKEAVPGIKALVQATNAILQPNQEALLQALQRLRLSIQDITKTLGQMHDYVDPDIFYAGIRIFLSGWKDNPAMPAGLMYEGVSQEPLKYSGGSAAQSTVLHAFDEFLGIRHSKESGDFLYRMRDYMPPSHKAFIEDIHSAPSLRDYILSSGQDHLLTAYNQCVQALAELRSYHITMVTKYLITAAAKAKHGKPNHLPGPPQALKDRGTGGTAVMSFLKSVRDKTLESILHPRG
Method: (§1) This colorimetric assay is based on the measurement of the ability of IDO1, IDO2 and TDO to convert L-tryptophan into N-formylkynurenine (NFK). The experiments were performed according to the manufacturer’s guidelines. The final concentration of the compounds and extracts in the reaction mixture was 100 µg/mL. The amount of NFK was measured spectrophotometrically at 320 nm using an Epoch BioTek microplate reader (BioTek Instruments, Inc., Winooski, VT, USA). The samples were run in triplicate and the results were expressed as mean ± SEM.

[2] = biological target: T2, tryptophan 2,3-dioxygenase (TDO) (Homo sapiens, UniProt P48775); test: Universal IDO1/IDO2/TDO Inhibitor Screening Assay Kit, TDO; type: biochemical; settings: read-out: Inhibition (%) TDO
T2 construct: purchased BPS Bioscience, Inc. (San Diego, CA, USA)
Method: as §1

T2 sequence (P48775 whole entry, species assumed): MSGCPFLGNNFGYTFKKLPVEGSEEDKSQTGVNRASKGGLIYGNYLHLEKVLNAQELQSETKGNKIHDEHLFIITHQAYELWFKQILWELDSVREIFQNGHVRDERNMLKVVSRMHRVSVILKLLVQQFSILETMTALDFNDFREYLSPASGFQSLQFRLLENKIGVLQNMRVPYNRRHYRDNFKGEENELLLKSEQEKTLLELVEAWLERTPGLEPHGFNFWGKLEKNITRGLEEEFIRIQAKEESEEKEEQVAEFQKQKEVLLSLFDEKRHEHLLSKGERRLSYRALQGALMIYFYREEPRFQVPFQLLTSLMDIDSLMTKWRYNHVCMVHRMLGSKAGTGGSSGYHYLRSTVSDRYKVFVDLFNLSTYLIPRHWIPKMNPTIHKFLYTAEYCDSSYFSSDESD

## NS(=O)(=O)NCCNc1nonc1C(=NO)Nc1ccc(F)c(Br)c1 [epacadostat, reference compound]
[1]
  inhibition at 100 µg/mL: < 10%
[2]
  inhibition at 100 µg/mL: < 10%

Reference: PMC8704315, “Lichen-Derived Compounds and Extracts as Biologically Active Substances with Anticancer and Neuroprotective Properties” (Pharmaceuticals, 2021)
